Experiments:
Experiment in all cases: relative viability (nuclei count vs DMSO), 5 days (fraction); higher = more cells survive
[1] = compound: CC1=C(C(=NN1)C)CC2=C(C3=C(S2)N(C(=O)N(C3=O)C)CC(C)C)C(=O)N4C[C@@H](CO4)O + COc1cc2c(Oc3ccc(NC(=O)C4(C(=O)Nc5ccc(F)cc5)CC4)cc3F)ccnc2cc1OCCCN1CCOCC1 [Foretinib] (partner 0.25 µM)
Method in brief: (§1)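 Dosing by pin tool came one day after lung cancer cell lines were seeded in 1536-well plates, using either one drug or a fixed anchor-drug dose plus five library-drug doses (not always all listed) in √10 steps. After 5 days, nuclei were counted on 4× images. Relative viability is treated-well nuclei count divided by vehicle-well nuclei count, and values are medians of duplicate plates.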

[2] = compound: CC1=C(C(=NN1)C)CC2=C(C3=C(S2)N(C(=O)N(C3=O)C)CC(C)C)C(=O)N4C[C@@H](CO4)O + CS(=O)(=O)CCNCc1ccc(-c2ccc3ncnc(Nc4ccc(OCc5cccc(F)c5)c(Cl)c4)c3c2)o1 [Lapatinib] (partner 2 µM)
Method in brief: as §1

IDH-C35 + OSI-027 = compound: Cc1ccccc1C(C(=O)NC1CCCCC1)N(C(=O)Cn1ccnc1C)c1cccc(F)c1 [IDH-C35] + COc1cccc2cc(-c3nc([C@H]4CC[C@H](C(=O)O)CC4)n4ncnc(N)c34)[nH]c12 [OSI-027] (partner 0.5 µM)
Method in brief: as §1

IDH-C35 + AZD7762 = compound: Cc1ccccc1C(C(=O)NC1CCCCC1)N(C(=O)Cn1ccnc1C)c1cccc(F)c1 [IDH-C35] + NC(=O)Nc1cc(-c2cccc(F)c2)sc1C(=O)N[C@H]1CCCNC1 [AZD7762] (partner 0.2 µM)
Method in brief: as §1

Cell Line	relative viability ([1]; first compound 0.0025 µM)	relative viability ([1]; first compound 0.007906 µM)	relative viability ([1]; first compound 0.025 µM)	relative viability ([1]; first compound 0.07906 µM)	relative viability ([1]; first compound 0.25 µM)	relative viability ([2]; first compound 0.0025 µM)	relative viability ([2]; first compound 0.007906 µM)	relative viability ([2]; first compound 0.025 µM)	relative viability ([2]; first compound 0.07906 µM)	relative viability ([2]; first compound 0.25 µM)	relative viability (IDH-C35 + OSI-027; first compound 0.08 µM)	relative viability (IDH-C35 + OSI-027; first compound 0.253 µM)	relative viability (IDH-C35 + OSI-027; first compound 0.8 µM)	relative viability (IDH-C35 + OSI-027; first compound 2.53 µM)	relative viability (IDH-C35 + OSI-027; first compound 8 µM)	relative viability (IDH-C35 + AZD7762; first compound 0.08 µM)	relative viability (IDH-C35 + AZD7762; first compound 0.253 µM)	relative viability (IDH-C35 + AZD7762; first compound 0.8 µM)	relative viability (IDH-C35 + AZD7762; first compound 2.53 µM)	relative viability (IDH-C35 + AZD7762; first compound 8 µM)
HCC-78	0.579	0.572	0.601	0.527	0.563	0.92	0.691	0.738	0.577	0.733	0.349	0.362	0.633	0.388	0.332	0.584	0.66	0.615	0.738	0.732
HCC-366	0.918	0.932	0.905	0.771	0.958	1.02	1.03	1.06	1.07	1.15	0.968	0.955	0.806		0.785	0.306	0.306	0.233	0.227	0.281
IA-LM	1.25	1.01	1.2	1.25	1.14	1.04	0.863	0.924	0.816	1.05										
LCLC-103H	0.89	0.672	0.817	0.84	1.02						0.458	0.487	0.473	0.428	0.457	0.831	0.792	0.81	0.779	0.829
NCI-H441	1.43	1.2	0.826	0.937	0.968						0.617	0.647	0.538	0.675	0.579	1.39	1.31	1.09	1.21	0.98
NCI-H520	0.894	0.73	0.701	0.564	0.692	0.983	0.823	0.621	0.496	0.544	0.257	0.243	0.268	0.276	0.265					
NCI-H522											0.784	0.658	0.74	0.669	0.674	0.845	0.934	0.868	0.788	0.985
NCI-H661	1	0.97	0.95	0.978	0.998	0.523	0.649	0.464	0.623	0.493	0.756	0.68	0.725	0.695	0.746					
NCI-H1299	1.06	1.11	1.06	1.1	1.09	0.953	0.992	0.93	0.935	0.986										
NCI-H1563	0.933	0.969	0.967	0.933	0.936	0.944	1.01	0.999	1.04	0.831	0.769	0.721	0.788	0.768	0.727					
NCI-H1623	0.985	0.788	0.997	0.805	0.749						0.45	0.421	0.394	0.435	0.423					
NCI-H1648											0.289	0.234	0.274	0.275	0.257		0.578	0.781	0.687	0.703
NCI-H1650	1.18	1.26	1.52	1.18	1.05	0.954	1.12	0.875	0.881	0.926	0.667	0.593	0.637	0.659	0.571					
NCI-H1703	0.38	0.391	0.386	0.329	0.362	1.14	1.37	1.02	1.14	1.08							0.141		0.131	0.148
NCI-H1792						0.963	0.931	0.834	0.746	0.824	0.725	0.718	0.705	0.742	0.75	0.795	0.725	0.657	0.719	0.609
NCI-H2009	1.16	1.27	1.17	1.35	1.15	1.12	1.48	0.963	1.04	1.26	0.654	0.643	0.685	0.668	0.569					
NCI-H2023	0.871	0.809	0.959	0.898	1.03	1.1	0.965	0.903	1.03	0.861	0.418	0.417	0.426	0.411	0.307					
NCI-H2228	0.828	1.04	0.734	0.83	1.08	1.03	1.02	1.37	0.961	1.34	0.729	0.687	0.55	0.586	0.535					
NCI-H2342	1.14	1.04	0.893	0.998	1.01						0.564	0.629	0.564	0.616	0.587	0.521	0.563	0.498	0.572	0.384
SK-LU-1	0.659	0.556	0.527	0.492	0.548	0.805	0.425	0.263	0.295	0.4	0.377	0.336	0.347	0.357	0.326					
SK-MES-1	0.901	1.06	1.02	0.954	0.991	0.474	0.462	0.445	0.434	0.454	0.634	0.598	0.604	0.597	0.508					
SW 900	1.01	1.06	0.671	0.834	1.06						0.496	0.584	0.601	0.353	0.625	0.564	0.787		0.505	0.549
SW 1573	0.958	1.05	0.86	0.74	0.964	1.09	1.02	1.05	1.04	1.19	0.779	0.798	0.648	0.763	0.753					

Reference: the supplement of paper PMC10307832
